Experimental data from PubChem BioAssay AID248 (DTP/NCI, 2004).
“And” between values parts separate entries of the source, which are not always exact repeats. Equal values may be shown once. Inconclusive results and toxic doses are left out. No stated cut-off is given here; in the data, active means T/C of 150% or more; inactive means T/C below 125%.

Tested on: L1210 leukemia ip in BDF1 mice, survival T/C
Test: NCI In Vivo Anticancer Drug Screen. Data for tumor model L1210 Leukemia (intraperitoneal) in B6D2F1 (BDF1) mice
Details: endpoint: mean survival time, higher = longer survival
Method in brief: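 Value reflects the ratio of survival in compound-treated mice to survival in vehicle-treated controls, with both groups carrying the same transplanted tumor.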

[1] = dose: 100.0 mg/kg/injection, schedule: Q01DX009 (ip), vehicle: Klucel (hydroxypropylcellulose) (HPC)
[2] = dose: 200.0 mg/kg/injection, schedule: Q01DX009 (ip), vehicle: Klucel (hydroxypropylcellulose) (HPC)
[3] = dose: 100.0 mg/kg/injection, schedule: Q01DX009 (ip), vehicle: saline
[4] = dose: 100.0 mg/kg/injection, schedule: Q04DX003 (ip), vehicle: saline with Tween-80
[5] = dose: 100.0 mg/kg/injection, schedule: Q01DX001 (ip), vehicle: saline
[6] = dose: 200.0 mg/kg/injection, schedule: Q01DX001 (ip), vehicle: saline
[7] = dose: 100.0 mg/kg/injection, schedule: Q04DX002 (ip), vehicle: Klucel (hydroxypropylcellulose) (HPC)
[8] = dose: 200.0 mg/kg/injection, schedule: Q04DX002 (ip), vehicle: Klucel (hydroxypropylcellulose) (HPC)
[9] = dose: 400.0 mg/kg/injection, schedule: Q04DX002 (ip), vehicle: Klucel (hydroxypropylcellulose) (HPC)
[10] = dose: 100.0 mg/kg/injection, schedule: Q04DX002 (ip), vehicle: other
[11] = dose: 200.0 mg/kg/injection, schedule: Q04DX003 (ip), vehicle: saline with Tween-80
[12] = dose: 400.0 mg/kg/injection, schedule: Q04DX003 (ip), vehicle: saline with Tween-80
[13] = dose: 100.0 mg/kg/injection, schedule: Q01DX001 (ip), vehicle: saline with Tween-80
[14] = dose: 200.0 mg/kg/injection, schedule: Q01DX001 (ip), vehicle: saline with Tween-80
[15] = dose: 400.0 mg/kg/injection, schedule: Q01DX001 (ip), vehicle: saline with Tween-80
[16] = dose: 100.0 mg/kg/injection, schedule: Q04DX003 (ip), vehicle: Klucel (hydroxypropylcellulose) (HPC)
[17] = dose: 200.0 mg/kg/injection, schedule: Q04DX003 (ip), vehicle: Klucel (hydroxypropylcellulose) (HPC)
[18] = dose: 400.0 mg/kg/injection, schedule: Q04DX003 (ip), vehicle: Klucel (hydroxypropylcellulose) (HPC)
[19] = dose: 25.0 mg/kg/injection, schedule: Q01DX009 (ip), vehicle: water
[20] = dose: 50.0 mg/kg/injection, schedule: Q01DX009 (ip), vehicle: water
[21] = dose: 100.0 mg/kg/injection, schedule: Q01DX009 (ip), vehicle: water
[22] = dose: 200.0 mg/kg/injection, schedule: Q01DX009 (ip), vehicle: water
[23] = dose: 400.0 mg/kg/injection, schedule: Q01DX009 (ip), vehicle: water

Measured: T/C

CCc1nc2ccccc2c(=O)n1-c1ccc(Cl)cc1
inactive: dose: 50.0 mg/kg/injection, schedule: Q01DX009 (ip), vehicle: saline with Tween-80 92 % of control | dose: 100.0 mg/kg/injection, schedule: Q01DX009 (ip), vehicle: saline with Tween-80 95 % of control

CC(C)(C)Sc1nc2ccccc2s1
inactive: dose: 25.0 mg/kg/injection, schedule: Q04DX002 (ip), vehicle: saline with Tween-80 93 % of control | dose: 50.0 mg/kg/injection, schedule: Q04DX002 (ip), vehicle: saline with Tween-80 93 % of control | dose: 100.0 mg/kg/injection, schedule: Q04DX002 (ip), vehicle: saline with Tween-80 96 % of control | dose: 200.0 mg/kg/injection, schedule: Q04DX002 (ip), vehicle: saline with Tween-80 105 % of control and 119 % of control | dose: 400.0 mg/kg/injection, schedule: Q04DX002 (ip), vehicle: saline with Tween-80 107 % of control

O=[N+]([O-])c1cccc(NCn2c(=S)[nH]c3ccccc32)c1
inactive: [1] 102 % of control | [2] 106 % of control

CCN(CC)CC(=O)NCC(CCN1CCCCC1)c1cccc2ccccc12 (stereo not drawn)
inactive: dose: 25.0 mg/kg/injection, schedule: Q04DX003 (ip), vehicle: saline 98 % of control | dose: 50.0 mg/kg/injection, schedule: Q04DX003 (ip), vehicle: saline 111 % of control | [3] 105 % of control | dose: 100.0 mg/kg/injection, schedule: Q04DX003 (ip), vehicle: saline 111 % of control

CN/N=C/c1ccc([N+](=O)[O-])cc1
inactive: dose: 25.0 mg/kg/injection, schedule: Q04DX002 (ip), vehicle: DMSO 96 % of control | dose: 50.0 mg/kg/injection, schedule: Q04DX002 (ip), vehicle: DMSO 96 % of control | dose: 100.0 mg/kg/injection, schedule: Q04DX002 (ip), vehicle: DMSO 96 % of control and 98 % of control | dose: 200.0 mg/kg/injection, schedule: Q04DX002 (ip), vehicle: DMSO 88 % of control

CC(=O)NNc1nc(C)cs1
inactive: [4] 97 % of control

CC1(C)CCC(C)(C)C2CC3C(CC21)C(C)(C)CCC3(C)C (stereo not drawn)
inactive: [5] 109 % of control | [6] 112 % of control | dose: 400.0 mg/kg/injection, schedule: Q01DX001 (ip), vehicle: saline 100 % of control

COc1cc(/C=N/N=C/c2cc(OC)cc(OC)c2)cc(OC)c1
inactive: [7] 98 % of control | [8] 100 % of control | [9] 107 % of control

O=C(Nc1ccccc1)Nc1ccc(Cl)cc1Cl
inactive: dose: 12.5 mg/kg/injection, schedule: Q04DX002 (ip), vehicle: other 107 % of control | dose: 25.0 mg/kg/injection, schedule: Q04DX002 (ip), vehicle: other 93 % of control | dose: 50.0 mg/kg/injection, schedule: Q04DX002 (ip), vehicle: other 90 % of control | [10] 96 % of control

O=C(O)c1cccc2nc3ccccc3nc12
inactive: [7] 100 % of control | [8] 102 % of control | [9] 96 % of control

Clc1ncnc2c1nnn2C1CCCC1
inactive: [5] 101 % of control | [6] 104 % of control

O=C1CCOc2ccccc21
inactive: [10] 87 % of control | dose: 200.0 mg/kg/injection, schedule: Q04DX002 (ip), vehicle: other 90 % of control | dose: 400.0 mg/kg/injection, schedule: Q04DX002 (ip), vehicle: other 94 % of control

CN(C(=O)/C=C/c1ccccc1)C1CCCCC1
inactive: [1] 101 % of control | [2] 110 % of control | dose: 400.0 mg/kg/injection, schedule: Q01DX009 (ip), vehicle: Klucel (hydroxypropylcellulose) (HPC) 111 % of control

N#Cc1nccc2ccc(OCc3ccc(Br)cc3)cc12
inactive: [4] 88 % of control | [11] 86 % of control | [12] 89 % of control

O=[N+]([O-])c1ccc(Oc2ccc(Cl)cc2Cl)c([N+](=O)[O-])c1
inactive: [13] 103 % of control | [4] 105 % of control | [14] 94 % of control | [11] 102 % of control | dose: 222.0 mg/kg/injection, schedule: Q01DX Z (ip), vehicle: methylcellulose (MC) 100 % of control | dose: 333.0 mg/kg/injection, schedule: Q01DX Z (ip), vehicle: methylcellulose (MC) 92 % of control | [15] 97 % of control | [12] 99 % of control | dose: 500.0 mg/kg/injection, schedule: Q01DX Z (ip), vehicle: methylcellulose (MC) 95 % of control

O=C(NCCCl)NCc1ccccc1
inactive: [16] 103 % of control | [17] 107 % of control | [18] 113 % of control

Cc1ccc(/C=C2\NC(=O)NC2=O)cc1
inactive: [19] 94 % of control | [20] 93 % of control | [21] 100 % of control | [22] 94 % of control | [23] 101 % of control

O=C1C(n2ccc(=O)[nH]c2=O)CCN1CCO (stereo not drawn)
inactive: [3] 105 % of control | dose: 200.0 mg/kg/injection, schedule: Q01DX009 (ip), vehicle: saline 100 % of control | dose: 400.0 mg/kg/injection, schedule: Q01DX009 (ip), vehicle: saline 97 % of control

CCOC(=O)C1=C(Nc2ccccc2)CSC1
inactive: [19] 100 % of control | [20] 101 % of control | [21] 94 % of control | [22] 102 % of control | [23] 89 % of control

O=C(COc1ccc(Cl)cc1)Nc1ccc(Br)cc1
inactive: dose: 100.0 mg/kg/injection, schedule: Q04DX002 (ip), vehicle: gum acacia 97 % of control | dose: 200.0 mg/kg/injection, schedule: Q04DX002 (ip), vehicle: gum acacia 106 % of control | dose: 400.0 mg/kg/injection, schedule: Q04DX002 (ip), vehicle: gum acacia 95 % of control

CC(=O)OC1CCC2C3C(C)C4(O)C=CCCC(C)(O4)C3CCC12C (stereo not drawn)
inactive: dose: 50.0 mg/kg/injection, schedule: Q01DX001 (sc), vehicle: steriod suspending solution 100 % of control | dose: 100.0 mg/kg/injection, schedule: Q01DX001 (sc), vehicle: steriod suspending solution 89 % of control | dose: 200.0 mg/kg/injection, schedule: Q01DX001 (sc), vehicle: steriod suspending solution 96 % of control | dose: 400.0 mg/kg/injection, schedule: Q01DX001 (sc), vehicle: steriod suspending solution 105 % of control

C/C=C/C=C/C(=O)c1cc(C#N)c(OC)cc1O
inactive: [13] 93 % of control | [14] 90 % of control | [15] 93 % of control

CCCCCCCCCCCCC(O)(CCC)C(=O)O (stereo not drawn)
inactive: [7] 102 % of control | [8] 98 % of control | [9] 98 % of control

CCOC(=O)C(=O)Cc1nc2ccccc2[nH]c1=O
inactive: dose: 50.0 mg/kg/injection, schedule: Q01DX009 (ip), vehicle: Klucel (hydroxypropylcellulose) (HPC) 94 % of control | [1] 91 % of control | [2] 94 % of control

Cc1ccccc1OP(=S)(NN)Oc1ccccc1C
inactive: [7] 93 % of control | [8] 100 % of control | [9] 100 % of control

COC(=N)Cc1ccc(F)cc1
inactive: dose: 75.0 mg/kg/injection, schedule: Q01DX009 (ip), vehicle: saline with Tween-80 111 % of control | dose: 150.0 mg/kg/injection, schedule: Q01DX009 (ip), vehicle: saline with Tween-80 112 % of control | dose: 300.0 mg/kg/injection, schedule: Q01DX009 (ip), vehicle: saline with Tween-80 112 % of control

O=C(O)c1ccc(Oc2ccc([N+](=O)[O-])cc2)cc1
inactive: dose: 100.0 mg/kg/injection, schedule: Q01DX001 (ip), vehicle: Klucel (hydroxypropylcellulose) (HPC) 94 % of control | [16] 102 % of control | dose: 200.0 mg/kg/injection, schedule: Q01DX001 (ip), vehicle: Klucel (hydroxypropylcellulose) (HPC) 102 % of control | [17] 92 % of control | dose: 400.0 mg/kg/injection, schedule: Q01DX001 (ip), vehicle: Klucel (hydroxypropylcellulose) (HPC) 108 % of control | [18] 96 % of control

Cc1cccc(SC(=O)Nc2cc([N+](=O)[O-])ccc2C)c1
inactive: [16] 92 % of control | [17] 98 % of control | [18] 97 % of control
